Experimental data: the supplement of paper PMC4862054

Assays:
Conditions in all cases: incubation time: 72 h
Hs578T [1] = test: normalised viability (% of control), CellTiter-Blue; higher = more viable cells (about 100 = DMSO control)
Outline: (§1)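 Breast cancer cell lines were treated for 72 h in 384-well format and measured by CellTiter-Blue fluorescence at 560/590 nm. Results were normalised per plate to vehicle (100) and a positive kill control (0). The entry is normalised viability at a single listed concentration of the series.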

CAL-51 [2] = test: as above
Outline: as §1

MFM-223 [3] = test: as above
Outline: as §1

HCC1143 [4] = test: as above
Outline: as §1

MDA-MB-231 [5] = test: as above
Outline: as §1

MDA-MB-436 [6] = test: as above
Outline: as §1

MDA-MB-468 [7] = test: as above
Outline: as §1

DU-4475 [8] = test: as above
Outline: as §1

HCC1937 [9] = test: as above
Outline: as §1

Hs578T [10] = test: normalised viability (% of control), CellTiter-Blue; higher = more viable cells (100 = DMSO, 0 = benzethonium chloride kill control)
Description: (§2)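 DSRT, CellTiter-Blue viability, 72 h incubation. Signal is normalised to DMSO and benzethonium chloride controls. Value is the normalised response at dose 1.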

CAL-51 [11] = test: as above
Description: as §2

BT-549 = test: as above
Description: as §2

CAL-85-1 = test: as above
Description: as §2

HCC1599 = test: as above
Description: as §2

HDQ-P1 = test: as above
Description: as §2

MFM-223 [12] = test: as above
Description: as §2

BT-474 = test: as above
Description: as §2

MDA-MB-453 = test: as above
Description: as §2

CAL-120 = test: as above
Description: as §2

HCC1143 [13] = test: as above
Description: as §2

CAL-148 = test: as above
Description: as §2

MDA-MB-231 [14] = test: as above
Description: as §2

MDA-MB-436 [15] = test: as above
Description: as §2

MDA-MB-468 [16] = test: as above
Description: as §2

DU-4475 [17] = test: as above
Description: as §2

SK-BR-3 = test: as above
Description: as §2

HCC1937 [18] = test: as above
Description: as §2

CC[C@@]1(O)C(=O)OCc2c1cc1n(c2=O)Cc2cc3c(CN(C)C)c(O)ccc3nc2-1 [Topotecan]
Conditions	normalised viability [%]
BT-474, 0.1 nM	111
BT-549, 0.1 nM	96.1
CAL-51 [2], 0.3 nM	99
CAL-51 [2], 3 nM	96.5
CAL-51 [2], 10 nM	96.8
CAL-51 [11], 0.1 nM	92.5
CAL-85-1, 0.1 nM	85.5
CAL-120, 0.1 nM	85.9
CAL-148, 0.1 nM	103
DU-4475 [8], 0.3 nM	88.4
DU-4475 [8], 3 nM	88.4
DU-4475 [8], 10 nM	78.5
DU-4475 [17], 0.1 nM	102
HCC1143 [4], 1 nM	79.9
HCC1143 [4], 100 nM	79.1
HCC1143 [4], 1000 nM	41.9
HCC1143 [13], 0.1 nM	98.3
HCC1599, 0.1 nM	90.8
HCC1937 [9], 1 nM	96.9
HCC1937 [9], 100 nM	40.6
HCC1937 [9], 1000 nM	26.2
HCC1937 [18], 0.1 nM	81.5
HDQ-P1, 0.1 nM	115
Hs578T [1], 1 nM	132
Hs578T [1], 100 nM	102
Hs578T [1], 1000 nM	69.4
Hs578T [10], 0.1 nM	110
MDA-MB-231 [5], 1 nM	97
MDA-MB-231 [5], 100 nM	80.5
MDA-MB-231 [5], 1000 nM	59.8
MDA-MB-231 [14], 0.1 nM	98.6
MDA-MB-436 [6], 1 nM	110
MDA-MB-436 [6], 100 nM	75.5
MDA-MB-436 [6], 1000 nM	44.6
MDA-MB-436 [15], 0.1 nM	99.9
MDA-MB-453, 0.1 nM	110
MDA-MB-468 [7], 1 nM	108
MDA-MB-468 [7], 100 nM	45.6
MDA-MB-468 [7], 1000 nM	12.8
MDA-MB-468 [16], 0.1 nM	107
MFM-223 [3], 1 nM	105
MFM-223 [3], 100 nM	88.2
MFM-223 [3], 1000 nM	53.5
MFM-223 [12], 0.1 nM	100
SK-BR-3, 0.1 nM	92.4

CS(=O)(=O)N1CCN(Cc2cc3nc(-c4cccc5[nH]ncc45)nc(N4CCOCC4)c3s2)CC1 [GDC-0941]
Conditions	normalised viability [%]
BT-474, 1 nM	101
BT-549, 1 nM	94.6
CAL-51 [2], 3 nM	117
CAL-51 [2], 30 nM	106
CAL-51 [2], 100 nM	89.4
CAL-51 [11], 1 nM	114
CAL-85-1, 1 nM	87.5
CAL-120, 1 nM	89.7
CAL-148, 1 nM	100
DU-4475 [8], 3 nM	107
DU-4475 [8], 30 nM	98.8
DU-4475 [8], 100 nM	95.5
DU-4475 [17], 1 nM	106
HCC1143 [4], 10 nM	73.2
HCC1143 [4], 1000 nM	52.1
HCC1143 [4], 10000 nM	21.2
HCC1143 [13], 1 nM	84.1
HCC1599, 1 nM	92.8
HCC1937 [9], 10 nM	114
HCC1937 [9], 1000 nM	60.8
HCC1937 [9], 10000 nM	25.5
HCC1937 [18], 1 nM	112
HDQ-P1, 1 nM	109
Hs578T [1], 10 nM	112
Hs578T [1], 1000 nM	62.3
Hs578T [1], 10000 nM	19.6
Hs578T [10], 1 nM	112
MDA-MB-231 [5], 10 nM	90.8
MDA-MB-231 [5], 1000 nM	63.4
MDA-MB-231 [5], 10000 nM	35.2
MDA-MB-231 [14], 1 nM	92.9
MDA-MB-436 [6], 10 nM	97.7
MDA-MB-436 [6], 1000 nM	68.1
MDA-MB-436 [6], 10000 nM	22.9
MDA-MB-436 [15], 1 nM	118
MDA-MB-453, 1 nM	93
MDA-MB-468 [7], 10 nM	108
MDA-MB-468 [7], 1000 nM	62.8
MDA-MB-468 [7], 10000 nM	17
MDA-MB-468 [16], 1 nM	95.5
MFM-223 [3], 10 nM	95.7
MFM-223 [3], 1000 nM	43.5
MFM-223 [3], 10000 nM	13.1
MFM-223 [12], 1 nM	89.7
SK-BR-3, 1 nM	88.3
